Data: article PMC12803606, “A metabolic comparison of GIPR agonism versus GIPR antagonism in male mice” (Diabetes, Obesity & Metabolism, 2025)

Columns and labels:
[1] = system: glucagon secretion; details: cited from earlier work
Description: We next investigated the effects of GIP108 and NN‐GIPR‐Ant administration on insulin sensitivity.

[2] = system: human adipocytes; details: acute administration; ex vivo and in vivo glucose uptake; cited from earlier work
Description: Another important focus of this study was the effect of GIP108 and NN‐GIPR‐Ant administration on insulin sensitivity.

[3] = human study, 6‐day GIP infusion; cited from earlier work
Description: We also investigated the effects of GIPR agonism and antagonism on liver triglyceride content.

[4] = system: osteoblastic and osteoclastic activity; details: cited from earlier work
[5] = system: CTX; details: rodent models and humans; cited from earlier work
[6] = system: mouse GIPR; assay: HTRF cAMP assay, AD293 cells transiently transfected with mGIPR; type: cell-based; details: 30 min, n = 3
Description: For the antagonist we used a long‐acting GIPR antagonist, named throughout as NN‐GIPR‐Ant, previously characterised by Yang et al.[7] We first confirmed the actions of NN‐GIPR‐Ant as a mouse GIPR antagonist, performing in vitro cAMP assays in AD293 cells, a human embryonic kidney cell line commonly used in G‐protein coupled receptor research due to rapid division and ease of receptor transfection.
(A–C) Amino acid sequences of hGIP (A), GIP108 (B) and NN‐GIPR‐Ant (C). AIB = 2‐aminoisobutyric acid. Side chains denote fatty acid tails. (D–F) cAMP measurements in AD293 cells transiently transfected with the mGIPR (D), mGLP‐1R (E) and mGCGR (F) and stimulated for 30 min with the indicated peptide (n = 3), with three parameter curve fits plotted. (G, H) 60‐min intraperitoneal glucose tolerance test in lean mice (n = 8). (G) Plasma glucose over time with glucose ± hGIP injected at t = 0 and NN‐GIPR‐Ant injected at t = −120 min, analysed using two‐way ANOVA with time and subgroup as co‐variables. (H) Glucose AUC derived from the time course in (H), analysed using a one‐way ANOVA. Dunnett's test was used to correct for multiple comparisons against vehicle control. […] The colour of the star denotes which group is statistically different compared to vehicle control. […]

[7] = system: GIPR; assay: Intraperitoneal glucose tolerance test in lean mice, hGIP with NN-GIPR-Ant (in vivo antagonism); set-up: species or system mouse; details: n = 8, hGIP 50 nmol/kg with glucose 2 g/kg at t = 0
Experimental: (A–C) Amino acid sequences of hGIP (A), GIP108 (B) and NN‐GIPR‐Ant (C). AIB = 2‐aminoisobutyric acid. Side chains denote fatty acid tails. (D–F) cAMP measurements in AD293 cells transiently transfected with the mGIPR (D), mGLP‐1R (E) and mGCGR (F) and stimulated for 30 min with the indicated peptide (n = 3), with three parameter curve fits plotted. (G, H) 60‐min intraperitoneal glucose tolerance test in lean mice (n = 8). (G) Plasma glucose over time with glucose ± hGIP injected at t = 0 and NN‐GIPR‐Ant injected at t = −120 min, analysed using two‐way ANOVA with time and subgroup as co‐variables. (H) Glucose AUC derived from the time course in (H), analysed using a one‐way ANOVA. Dunnett's test was used to correct for multiple comparisons against vehicle control. […] The colour of the star denotes which group is statistically different compared to vehicle control.
All animal procedures were approved by the British Home Office under the UK Animals (Scientific Procedures) Act 1986, and Amendment Regulations, 2012 and approved by the Imperial College London Animal Welfare and Ethical Review Body. Wild type male C57BL/6J mice (8-14 weeks; Charles River, UK) were used. […]
Mice were fasted at 08:00. […] Total glucose AUC was calculated by trapezoidal rule using y=0 as baseline. Glucose readings were measured in mmol/L using the same ISO15197-compliant GlucoRx Nexus (GlucoRx, Guildford, UK) glucometer.

[8] = system: humans; details: ref 12 (as cited in b3; abstract prints none); cited from earlier work

## glucose‐dependent insulinotropic polypeptide [GIP]
[1]
  glucagon secretion in hypoglycaemia: potently stimulate glucagon secretion in hypoglycaemia
[2]
  insulin sensitising effect in human adipocytes: increasing adipocyte glucose uptake both ex vivo and in vivo
[3]
  liver fat: increased liver fat
[4]
  osteoblastic and osteoclastic activity: increases osteoblastic and suppresses osteoclastic activity
[5]
  CTX levels, acute: acutely lowers CTX levels

## hGIP: hGIP(1‐42); sequence in Figure 1A (YAEGTFISDYSIAMDKIHQQDFVNWLLAQKGKKNDWKHNITQ; Gastric inhibitory polypeptide; UniProt P09681 52-93, looked up)
[6]
  stimulation of cAMP at mouse GIPR: ability to stimulate cAMP
[7]
  improvement of glucose tolerance by hGIP: improve glucose tolerance

## maridebart cafraglutide: Amgen's high‐affinity GIPR antagonist antibody with GLP‐1R agonist conjugate arms
[8]
  weight loss effects in humans: significant weight loss effects in humans
